Consider 14 compounds from US8859569B2, “Substituted annellated pyrimidines and use thereof” (Bayer Pharma Aktiengesellschaft, priority 2011, dated 2014).

The target in experiment [1] is T1, recombinant guanylate cyclase reporter cell line (Rattus norvegicus, UniProt P19686+P20595).
T1 construct: expressed in transfected cells
T1 sequence (P20595 1-619): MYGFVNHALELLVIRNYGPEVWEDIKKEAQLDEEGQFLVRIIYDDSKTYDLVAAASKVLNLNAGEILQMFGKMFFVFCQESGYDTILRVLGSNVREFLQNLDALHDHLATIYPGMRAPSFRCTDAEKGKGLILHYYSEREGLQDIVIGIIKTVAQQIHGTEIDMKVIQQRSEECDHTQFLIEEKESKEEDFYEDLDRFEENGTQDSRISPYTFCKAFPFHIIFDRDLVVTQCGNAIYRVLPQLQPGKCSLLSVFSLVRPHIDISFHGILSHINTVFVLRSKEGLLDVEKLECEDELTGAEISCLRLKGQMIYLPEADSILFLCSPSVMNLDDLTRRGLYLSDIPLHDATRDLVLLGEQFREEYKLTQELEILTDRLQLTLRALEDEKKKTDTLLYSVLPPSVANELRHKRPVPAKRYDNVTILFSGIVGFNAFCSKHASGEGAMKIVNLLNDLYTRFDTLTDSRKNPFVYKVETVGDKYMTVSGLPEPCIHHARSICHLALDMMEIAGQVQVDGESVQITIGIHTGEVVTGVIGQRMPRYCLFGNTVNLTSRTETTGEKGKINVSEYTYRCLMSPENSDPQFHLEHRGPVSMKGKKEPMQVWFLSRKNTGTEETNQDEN
T1 sequence (P19686 1-690): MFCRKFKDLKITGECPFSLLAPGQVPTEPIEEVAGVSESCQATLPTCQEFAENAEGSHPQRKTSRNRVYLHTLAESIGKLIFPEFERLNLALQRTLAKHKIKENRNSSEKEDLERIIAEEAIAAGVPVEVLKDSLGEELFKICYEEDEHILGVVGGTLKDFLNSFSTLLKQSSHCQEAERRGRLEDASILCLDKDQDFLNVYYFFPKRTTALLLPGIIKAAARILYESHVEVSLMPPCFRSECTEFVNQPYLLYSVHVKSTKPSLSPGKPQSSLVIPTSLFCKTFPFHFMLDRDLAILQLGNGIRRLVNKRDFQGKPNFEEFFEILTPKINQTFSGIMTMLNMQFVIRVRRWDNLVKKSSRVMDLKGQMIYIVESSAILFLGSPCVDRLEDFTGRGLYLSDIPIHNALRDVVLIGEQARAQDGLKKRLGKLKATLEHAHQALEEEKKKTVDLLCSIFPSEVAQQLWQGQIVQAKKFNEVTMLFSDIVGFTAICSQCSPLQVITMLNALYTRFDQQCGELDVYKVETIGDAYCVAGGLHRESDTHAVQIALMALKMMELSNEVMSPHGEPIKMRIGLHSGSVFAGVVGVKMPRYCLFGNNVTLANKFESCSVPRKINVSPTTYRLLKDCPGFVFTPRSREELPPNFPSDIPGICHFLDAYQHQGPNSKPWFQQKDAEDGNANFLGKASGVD
As to the kind of experiment: Action on recombinant guanylate cyclase reporter cell line. It counts as cell-based. On the procedure:
B-2. Action on Recombinant Guanylate Cyclase Reporter Cell Line
The cellular action of the compounds according to the invention is determined on a recombinant guanylate cyclase reporter cell line, as described in F. Wunder et al., Anal. Biochem. 339, 104-112 (2005).

Experiment [2] has as its target T2, human phosphodiesterase 5 (PDE-5) (Homo sapiens, UniProt O76074).
T2 construct: PDE-5 preparations are obtained from human platelets by lysis; from tissue; host or cells: human platelets
As to the kind of experiment: Inhibition of human phosphodiesterase 5 (PDE-5), SPA assay. Conditions: PDE-5 preparation from human platelets, [8-3H]cGMP substrate. It counts as biochemical. On the procedure: B-6. Inhibition of Human Phosphodiesterase 5 (PDE-5)
PDE-5 preparations are obtained from human platelets by lysis (Microfluidizer®, 800 bar, 3 passages), followed by centrifugation (75000 g, 60 min, 4° C.) and ion-exchange chromatography of the supernatant on a Mono Q 10/10 column (linear sodium chloride gradient, elution with a 0.2-0.3M solution of sodium chloride in buffer (20 mM Hepes pH 7.2, 2 mM magnesium chloride). Fractions that have PDE-5 activity are combined (PDE-5 preparation) and stored at −80° C.
For determining their in-vitro action on human PDE-5, the test substances are dissolved in 100% DMSO and serial dilutions are prepared. Typically, dilution series (1:3) from 200 μM to 0.091 μM are prepared (resultant final concentrations in the test: 4 μM to 0.0018 μM). In each case 2 μL of the diluted solutions of the substance are put in the wells of microtitre plates (Isoplate-96/200W; Perkin-Elmer). Then 50 μL of a dilution of the PDE-5 preparation described above is added. The dilution of the PDE-5 preparation is selected so that during subsequent incubation less than 70% of the substrate is reacted (typical dilution: 1:100; dilution buffer: 50 mM Tris/hydrochloric acid pH 7.5, 8.3 mM magnesium chloride, 1.7 mM EDTA, 0.2% BSA). The substrate [8-^3H]cyclic guanosine-3′,5′-monophosphate (1 μCi/μL; Perkin-Elmer) is diluted 1:2000 with assay buffer (50 mM Tris/hydrochloric acid pH 7.5, 8.3 mM magnesium chloride, 1.7 mM EDTA) to a concentration of 0.0005 μCi/μL. The enzyme reaction is finally started by adding 50 μL (0.025 μCi) of the diluted substrate. The test preparations are incubated for 60 min at room temperature and the reaction is stopped by adding 25 μL of a suspension of 18 mg/mL of Yttrium Scintillation Proximity Beads in water (phosphodiesterase beads for SPA assays, RPNQ 0150, Perkin-Elmer). The microtitre plates are sealed with film and left to stand for 60 min at room temperature. Then the plates are measured for 30 s per well in a Microbeta scintillation counter (Perkin-Elmer). IC50 values are determined on the basis of the graphs plotted of the substance concentration versus the percentage PDE-5 inhibition.

As to `CC1(C)C(=O)Nc2nc(-c3nn(Cc4ccccc4F)c4ncccc34)nc(N3C[C@@H]4C[C@H]3CO4)c21` [Example 46, 2-[1-(2-fluorobenzyl)-1H-pyrazolo[3,4-b]pyridin-3-yl]-5,5-dimethyl-4-[(1S,4S)-2-oxa-5-azabicyclo[2.2.1]hept-5-yl]-5,7-dihydro-6H-pyrrolo[2,3-d]pyrimidin-6-one], the “MEC (minimal effective concentration)” value in experiment [1] was 0.1 μm. In experiment [2], this compound yielded an IC50 of 35 nM.

Regarding `CC1(C)C(=O)Nc2nc(-c3nn(Cc4ccccc4F)c4ncccc34)nc(NCCn3ccnn3)c21` [Example 47, 2-[1-(2-fluorobenzyl)-1H-pyrazolo[3,4-b]pyridin-3-yl]-5,5-dimethyl-4-{[2-(1H-1,2,3-triazol-1-yl)ethyl]amino}-5,7-dihydro-6H-pyrrolo[2,3-d]pyrimidin-6-one], the “MEC (minimal effective concentration)” value in experiment [1] came to 0.1 μm. In experiment [2], this compound yielded an IC50 of 83 nM.

Consider `Cn1ccc(CNc2nc(-c3nn(Cc4ccccc4F)c4ncccc34)nc3c2C(C)(C)C(=O)N3)n1` [Example 48, 2-[1-(2-fluorobenzyl)-1H-pyrazolo[3,4-b]pyridin-3-yl]-5,5-dimethyl-4-{[(1-methyl-1H-pyrazol-3-yl)methyl]amino}-5,7-dihydro-6H-pyrrolo[2,3-d]pyrimidin-6-one], for which the “MEC (minimal effective concentration)” value in experiment [1] was 0.1 μm. Half-maximal inhibition in experiment [2] (IC50) required 54 nM.

Turning to `Cc1cc(Nc2nc(-c3nn(Cc4ccccc4F)c4ncccc34)nc3c2C(C)(C)C(=O)N3)nn1C` [Example 50, 4-[(1,5-dimethyl-1H-pyrazol-3-yl)amino]-2-[1-(2-fluorobenzyl)-1H-pyrazolo[3,4-b]pyridin-3-yl]-5,5-dimethyl-5,7-dihydro-6H-pyrrolo[2,3-d]pyrimidin-6-one], in experiment [1], the “MEC (minimal effective concentration)” value was determined as 0.1 μm. Also, the IC50 in experiment [2] came to 40 nM.

Take `CC1(C)C(=O)Nc2nc(-c3nn(Cc4ccccc4F)c4ncccc34)nc(N[C@@H]3CCCOC3)c21` [Example 51, 2-[1-(2-fluorobenzyl)-1H-pyrazolo[3,4-b]pyridin-3-yl]-5,5-dimethyl-4-(tetrahydro-2H-pyran-3-ylamino)-5,7-dihydro-6H-pyrrolo[2,3-d]pyrimidin-6-one]: in experiment [1], the “MEC (minimal effective concentration)” value is 0.03 μm. Half-maximal inhibition in experiment [2] (IC50) was put at 5 nM.

As for `CC1(C)C(=O)Nc2nc(-c3nn(Cc4ccccc4F)c4ncccc34)nc(N3CCC(O)CC3)c21` [Example 52, 2-[1-(2-fluorobenzyl)-1H-pyrazolo[3,4-b]pyridin-3-yl]-4-(4-hydroxypiperidin-1-yl)-5,5-dimethyl-5,7-dihydro-6H-pyrrolo[2,3-d]pyrimidin-6-one], the “MEC (minimal effective concentration)” value in experiment [1] came out at 0.01 μm. In experiment [2], inhibition was half-maximal at 34 nM (IC50).

`COC1CN(c2nc(-c3nn(Cc4ccccc4F)c4ncccc34)nc3c2C(C)(C)C(=O)N3)C1` [Example 53, 2-[1-(2-fluorobenzyl)-1H-pyrazolo[3,4-b]pyridin-3-yl]-4-(3-methoxyazetidin-1-yl)-5,5-dimethyl-5,7-dihydro-6H-pyrrolo[2,3-d]pyrimidin-6-one]: in experiment [1], the “MEC (minimal effective concentration)” value came to 3.0 μm. The IC50 in experiment [2] came to 150 nM.

On to `CC1(C)C(=O)Nc2nc(-c3nn(Cc4ccccc4F)c4ncccc34)nc(NCc3ccccn3)c21` [Example 55, 2-[1-(2-fluorobenzyl)-1H-pyrazolo[3,4-b]pyridin-3-yl]-5,5-dimethyl-4-[(pyridin-2-ylmethyl)amino]-5,7-dihydro-6H-pyrrolo[2,3-d]pyrimidin-6-one], for which the “MEC (minimal effective concentration)” value in experiment [1] came out at 0.03 μm. This compound showed an IC50 in experiment [2] of 130 nM.

`COCCNc1nc(-c2nn(Cc3ccccc3F)c3ncccc23)nc2c1C(C)(C)C(=O)N2` [Example 56, 2-[1-(2-fluorobenzyl)-1H-pyrazolo[3,4-b]pyridin-3-yl]-4-[(2-methoxyethyl)amino]-5,5-dimethyl-5,7-dihydro-6H-pyrrolo[2,3-d]pyrimidin-6-one]: in experiment [1], the “MEC (minimal effective concentration)” value was 0.03 μm. The IC50 in experiment [2] was 34 nM.

Regarding `CC1(C)C(=O)Nc2nc(-c3nn(Cc4ccccc4F)c4ncccc34)nc(NCCn3cccn3)c21` [Example 58, 2-[1-(2-fluorobenzyl)-1H-pyrazolo[3,4-b]pyridin-3-yl]-5,5-dimethyl-4-{[2-(1H-pyrazol-1-yl)ethyl]amino}-5,7-dihydro-6H-pyrrolo[2,3-d]pyrimidin-6-one], the “MEC (minimal effective concentration)” value in experiment [1] worked out at 0.03 μm. In experiment [2], the IC50 turned out to be 270 nM.

In the case of `Cn1cc(CNc2nc(-c3nn(Cc4ccccc4F)c4ncccc34)nc3c2C(C)(C)C(=O)N3)cn1` [Example 59, 2-[1-(2-fluorobenzyl)-1H-pyrazolo[3,4-b]pyridin-3-yl]-5,5-dimethyl-4-{[(1-methyl-1H-pyrazol-4-yl)methyl]amino}-5,7-dihydro-6H-pyrrolo[2,3-d]pyrimidin-6-one], the “MEC (minimal effective concentration)” value in experiment [1] turned out to be 0.1 μm. The half-maximal inhibitory concentration (IC50) in experiment [2] was 8 nM.

Consider `Cn1ccnc1CNc1nc(-c2nn(Cc3ccccc3F)c3ncccc23)nc2c1C(C)(C)C(=O)N2` [Example 60, 2-[1-(2-fluorobenzyl)-1H-pyrazolo[3,4-b]pyridin-3-yl]-5,5-dimethyl-4-{[(1-methyl-1H-imidazol-2-yl)methyl]amino}-5,7-dihydro-6H-pyrrolo[2,3-d]pyrimidin-6-one], for which the “MEC (minimal effective concentration)” value in experiment [1] turned out to be 0.3 μm. The IC50 in experiment [2] stood at 430 nM.

With `CCN(CCOC)c1nc(-c2nn(Cc3ccccc3F)c3ncccc23)nc2c1C(C)(C)C(=O)N2` [Example 61, 4-[ethyl(2-methoxyethyl)amino]-2-[1-(2-fluorobenzyl)-1H-pyrazolo[3,4-b]pyridin-3-yl]-5,5-dimethyl-5,7-dihydro-6H-pyrrolo[2,3-d]pyrimidin-6-one], the “MEC (minimal effective concentration)” value in experiment [1] was found to be 0.03 μm. The compound further had an IC50 in experiment [2] of 100 nM.

In the case of `Cc1nccn1-c1nc(-c2nn(Cc3ccccc3F)c3ncccc23)nc2c1C(C)(C)C(=O)N2` [Example 62, 2-[1-(2-fluorobenzyl)-1H-pyrazolo[3,4-b]pyridin-3-yl]-5,5-dimethyl-4-(2-methyl-1H-imidazol-1-yl)-5,7-dihydro-6H-pyrrolo[2,3-d]pyrimidin-6-one], the “MEC (minimal effective concentration)” value in experiment [1] worked out at 0.1 μm. The IC50 in experiment [2] amounted to 480 nM.

As usually defined, the IC50 is the concentration that inhibits the measured activity by half. A low value points to greater potency.
